Data on three molecules can be found in BindingDB's records for doi:10.1021/jm049465g (National Institute On Drug Abuse-Intramural Research Program, 2005).

SMILES strings stand for the structures.

In general, EC50 refers to the concentration that produces a half-maximal response. A low value points to greater potency.

This assay in a line: Inhibition of quinpirole stimulation of mitogenesis at human dopamine D2 receptors expressed in Chinese hamster ovary cells.
In turn, `O=C(NC/C=C/CN1CCN(c2cccc(Cl)c2Cl)CC1)c1ccc(I)cc1` [N-{4-[4-(2,3-Dichloro-phenyl)-piperazin-1-yl]-but-2-enyl}-4-iodo-benzamide] registered an EC50 of 162 nM.
As for `COc1ccc(C(=O)NC/C=C/CN2CCN(c3cccc(Cl)c3Cl)CC2)cc1` [N-{4-[4-(2,3-Dichloro-phenyl)-piperazin-1-yl]-but-2-enyl}-4-methoxy-benzamide], the EC50 was 61.8 nM.
Consider `O=C(NC/C=C/CN1CCN(c2cccc(Cl)c2Cl)CC1)c1ccc([N+](=O)[O-])cc1` [N-{(E)-4-[4-(2,3-Dichloro-phenyl)-piperazin-1-yl]-but-2-enyl}-4-nitro-benzamide], for which the EC50 was 13.8 nM.
